PMC3090406, “Crystal Structures of Two Aminoglycoside Kinases Bound with a Eukaryotic Protein Kinase Inhibitor” (PLoS ONE, 2011)

Molecular target: APH(9)-Ia (Legionella pneumophila, UniProt O06916)
Assay: biochemical

Chain of APH(9)-Ia (O06916 1-331): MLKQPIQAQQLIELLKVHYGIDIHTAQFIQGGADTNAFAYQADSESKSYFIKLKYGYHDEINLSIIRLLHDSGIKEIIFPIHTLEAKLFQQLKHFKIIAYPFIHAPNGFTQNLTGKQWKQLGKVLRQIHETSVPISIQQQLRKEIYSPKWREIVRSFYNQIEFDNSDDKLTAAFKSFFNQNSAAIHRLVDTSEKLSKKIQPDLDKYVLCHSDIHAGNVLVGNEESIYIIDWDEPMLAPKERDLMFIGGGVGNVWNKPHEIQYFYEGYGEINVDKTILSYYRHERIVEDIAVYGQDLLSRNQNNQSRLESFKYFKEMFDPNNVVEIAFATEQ

Compound: NCCNS(=O)(=O)c1ccc(Cl)c2ccncc12 [CKI-7, N-(2-aminoethyl)-5-chloro-isoquinoline-8-sulfonamide]
- Ki: 159 ± 11 µM
